Measurements: patent US20260365682A1, “MODULATORS OF TNF-ALPHA ACTIVITY” (Forward Therapeutics, Inc., priority 2022, published 2026)
pIC50: −log10 of the molar value.

Target: T1, TNF-α (Homo sapiens, UniProt P01375)
T1 construct: purchased R&D 210-TA-020/CF
Assay: TNF-α Induced HEK Blue Cellular Assay (secreted alkaline phosphatase expression, QUANTI-Blue)
Type: cell-based
Settings: HEK Blue TNFα reporter cells; TNF-α 100 μg/ml; 24 hrs at 37° C.; inhibition of secreted alkaline phosphatase; read-out: IC50 value
Outline: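 Compound was serially diluted from […] to 0.5 nM final, then incubated with 10,000 HEK Blue TNFα reporter cells per well and […] TNF-α for 24 h at 37° C. SEAP output was read by QUANTI-Blue absorbance at 620 nm. Inhibition was background-corrected against DMSO controls with and without stimulation, and IC50 was fitted with a 4-parameter logistic equation.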

T1 sequence (P01375 77-233 limits assumed): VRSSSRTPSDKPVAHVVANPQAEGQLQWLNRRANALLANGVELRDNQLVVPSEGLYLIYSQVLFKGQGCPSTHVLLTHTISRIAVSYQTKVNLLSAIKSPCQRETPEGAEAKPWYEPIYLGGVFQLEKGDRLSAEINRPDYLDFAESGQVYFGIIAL

| Compound | pIC50 |
| --- | --- |
| [2H]C([2H])([2H])N1C(=O)c2cccc(OC(F)F)c2[C@H]2C[C@@H]1c1nc3ccc(C#CCOC(C)(C)C)cc3n12 [Example 56, (7R,14R)-11-(3-(tert-butoxy)prop-1-yn-1-yl)-1-(difluoromethoxy)-6-(methyl-d3)-6,7-dihydro-7,14-methanobenzo[f]benzo[4,5]imidazo[1,2-a][1,4]diazocin-5(14H)-one] | > 7.00 |
| [2H]C([2H])([2H])N1C(=O)c2cccc(OC(F)F)c2[C@H]2C[C@@H]1c1nc3ccc(C#CC4CCN(C)CC4)cc3n12 [Example 57, (7R,14R)-1-(difluoromethoxy)-6-(methyl-d3)-11-((1-methylpiperidin-4-yl)ethynyl)-6,7-dihydro-7,14-methanobenzo[f]benzo[4,5]imidazo[1,2-a][1,4]diazocin-5(14H)-one] | 6.00 to 7.00 |
| [2H]C([2H])([2H])N1C(=O)c2cccc(OC(F)F)c2[C@H]2C[C@@H]1c1nc3ccc(C#C[C@H]4CCCN4)cc3n12 [Example 58, (7R,14R)-1-(difluoromethoxy)-6-(methyl-d3)-11-(((R)-pyrrolidin-2-yl)ethynyl)-6,7-dihydro-7,14-methanobenzo[f]benzo[4,5]imidazo[1,2-a][1,4]diazocin-5(14H)-one] | 4.52 to 5.00 |
| [2H]C([2H])([2H])N1C(=O)c2cccc(OC(F)F)c2[C@H]2C[C@@H]1c1nc3ccc(C#C[C@@H]4CCCN4)cc3n12 [Example 59, (7R,14R)-1-(difluoromethoxy)-6-(methyl-d3)-11-(((S)-pyrrolidin-2-yl)ethynyl)-6,7-dihydro-7,14-methanobenzo[f]benzo[4,5]imidazo[1,2-a][1,4]diazocin-5(14H)-one] | 4.52 to 5.00 |
| [2H]C([2H])([2H])N1C(=O)c2cccc(OC(F)F)c2[C@H]2C[C@@H]1c1nc3ccc(C#CC4CCCNC4)cc3n12 (stereo partly drawn) [Example 60, (7R,14R)-1-(difluoromethoxy)-6-(methyl-d3)-11-(piperidin-3-ylethynyl)-6,7-dihydro-7,14-methanobenzo[f]benzo[4,5]imidazo[1,2-a][1,4]diazocin-5(14H)-one] | > 7.00 |
| [2H]C([2H])([2H])N1C(=O)c2cccc(OC(F)F)c2[C@H]2C[C@@H]1c1nc3ccc(C#CC4CCCN(C)C4)cc3n12 (stereo partly drawn) [Example 63, (7R,14R)-1-(difluoromethoxy)-6-(methyl-d3)-11-((1-methylpiperidin-3-yl)ethynyl)-6,7-dihydro-7,14-methanobenzo[f]benzo[4,5]imidazo[1,2-a][1,4]diazocin-5(14H)-one] | > 7.00 |
| [2H]C([2H])([2H])N1C(=O)c2cccc(OC(F)F)c2[C@H]2C[C@@H]1c1nc3ccc(C#CC(C)(C)N)cc3n12 [Example 64, (7R,14R)-11-(3-amino-3-methylbut-1-yn-1-yl)-1-(difluoromethoxy)-6-(methyl-d3)-6,7-dihydro-7,14-methanobenzo[f]benzo[4,5]imidazo[1,2-a][1,4]diazocin-5(14H)-one] | 4.52 to 5.00 |
| [2H]C([2H])([2H])N1C(=O)c2cccc(OC(F)F)c2[C@H]2C[C@@H]1c1nc3ccc(C#CC4CN(C)C4)cc3n12 [Example 68, (7R,14R)-1-(difluoromethoxy)-6-(methyl-d3)-11-((1-methylazetidin-3-yl)ethynyl)-6,7-dihydro-7,14-methanobenzo[f]benzo[4,5]imidazo[1,2-a][1,4]diazocin-5(14H)-one] | > 7.00 |
| [2H]C([2H])([2H])N1C(=O)c2cccc(OC(F)F)c2[C@H]2C[C@@H]1c1nc3ccc(C#CC4CNC4)cc3n12 [Example 69, (7R,14R)-11-(azetidin-3-ylethynyl)-1-(difluoromethoxy)-6-(methyl-d3)-6,7-dihydro-7,14-methanobenzo[f]benzo[4,5]imidazo[1,2-a][1,4]diazocin-5(14H)-one] | 6.00 to 7.00 |
| [2H]C([2H])([2H])N1C(=O)c2cccc(OC(F)F)c2[C@H]2C[C@@H]1c1nc3ccc(C#CCNC(C)(C)C)cc3n12 [Example 70, (7R,14R)-11-(3-(tert-butylamino)prop-1-yn-1-yl)-1-(difluoromethoxy)-6-(methyl-d3)-6,7-dihydro-7,14-methanobenzo[f]benzo[4,5]imidazo[1,2-a][1,4]diazocin-5(14H)-one] | 4.52 to 5.00 |
| [2H]C([2H])([2H])N1C(=O)c2cccc(OC(F)F)c2[C@H]2C[C@@H]1c1nc3ccc(C#CC4CCNC4)cc3n12 (stereo partly drawn) [Example 71, (7R,14R)-1-(difluoromethoxy)-6-(methyl-d3)-11-(pyrrolidin-3-ylethynyl)-6,7-dihydro-7,14-methanobenzo[f]benzo[4,5]imidazo[1,2-a][1,4]diazocin-5(14H)-one] | 6.00 to 7.00 |
| [2H]C([2H])([2H])N1C(=O)c2cccc(OC(F)F)c2[C@H]2C[C@@H]1c1nc3ccc(C#CC4CCN(C)C4)cc3n12 (stereo partly drawn) [Example 76, (7R,14R)-1-(difluoromethoxy)-6-(methyl-d3)-11-((1-methylpyrrolidin-3-yl)ethynyl)-6,7-dihydro-7,14-methanobenzo[f]benzo[4,5]imidazo[1,2-a][1,4]diazocin-5(14H)-one] | > 7.00 |

The remaining lines, values ahead:

| pIC50 | Compound |
| --- | --- |
| 4.52 to 5.00 | [2H]C([2H])([2H])N1C(=O)c2cccc(OC(F)F)c2[C@H]2C[C@@H]1c1nc3ccc(C#C[C@H](C)NCC)cc3n12 [Example 55, (7R,14R)-1-(difluoromethoxy)-11-((S)-3-(ethylamino)but-1-yn-1-yl)-6-(methyl-d3)-6,7-dihydro-7,14-methanobenzo[f]benzo[4,5]imidazo[1,2-a][1,4]diazocin-5(14H)-one] |
| 6.00 to 7.00 | [2H]C([2H])([2H])N1C(=O)c2cccc(OC(F)F)c2[C@H]2C[C@@H]1c1nc3ccc(C#CCN(C)C)cc3n12 [Example 61, (7R,14R)-1-(difluoromethoxy)-11-(3-(dimethylamino)prop-1-yn-1-yl)-6-(methyl-d3)-6,7-dihydro-7,14-methanobenzo[f]benzo[4,5]imidazo[1,2-a][1,4]diazocin-5(14H)-one] |
| > 7.00 | [2H]C([2H])([2H])N1C(=O)c2cccc(OC(F)F)c2[C@H]2C[C@@H]1c1nc3ccc(C#CCN(CC)CC)cc3n12 [Example 62, (7R,14R)-11-(3-(diethylamino)prop-1-yn-1-yl)-1-(difluoromethoxy)-6-(methyl-d3)-6,7-dihydro-7,14-methanobenzo[f]benzo[4,5]imidazo[1,2-a][1,4]diazocin-5(14H)-one] |
| 4.52 to 5.00 | [2H]C([2H])([2H])N1C(=O)c2cccc(OC(F)F)c2[C@H]2C[C@@H]1c1nc3ccc(C#CCNCC)cc3n12 [Example 65, (7R,14R)-1-(difluoromethoxy)-11-(3-(ethylamino)prop-1-yn-1-yl)-6-(methyl-d3)-6,7-dihydro-7,14-methanobenzo[f]benzo[4,5]imidazo[1,2-a][1,4]diazocin-5(14H)-one] |
| 6.00 to 7.00 | [2H]C([2H])([2H])N1C(=O)c2cccc(OC(F)F)c2[C@H]2C[C@@H]1c1nc3ccc(C#CCNC(C)C)cc3n12 [Example 66, (7R,14R)-1-(difluoromethoxy)-11-(3-(isopropylamino)prop-1-yn-1-yl)-6-(methyl-d3)-6,7-dihydro-7,14-methanobenzo[f]benzo[4,5]imidazo[1,2-a][1,4]diazocin-5(14H)-one] |
| 6.00 to 7.00 | [2H]C([2H])([2H])N1C(=O)c2cccc(OC(F)F)c2[C@H]2C[C@@H]1c1nc3ccc(C#CCN(C)CC)cc3n12 [Example 67, (7R,14R)-1-(difluoromethoxy)-11-(3-(ethyl(methyl)amino)prop-1-yn-1-yl)-6-(methyl-d3)-6,7-dihydro-7,14-methanobenzo[f]benzo[4,5]imidazo[1,2-a][1,4]diazocin-5(14H)-one] |
| > 7.00 | [2H]C([2H])([2H])N1C(=O)c2cccc(OC(F)F)c2[C@H]2C[C@@H]1c1nc3ccc(C#CCOC(C)CO)cc3n12 (stereo partly drawn) [Example 72, (7R,14R)-1-(difluoromethoxy)-11-(3-((1-hydroxypropan-2-yl)oxy)prop-1-yn-1-yl)-6-(methyl-d3)-6,7-dihydro-7,14-methanobenzo[f]benzo[4,5]imidazo[1,2-a][1,4]diazocin-5(14H)-one] |
| > 7.00 | [2H]C([2H])([2H])N1C(=O)c2cccc(OC(F)F)c2[C@H]2C[C@@H]1c1nc3ccc(C#CCOCC(C)O)cc3n12 (stereo partly drawn) [Example 73, (7R,14R)-1-(difluoromethoxy)-11-(3-(2-hydroxypropoxy)prop-1-yn-1-yl)-6-(methyl-d3)-6,7-dihydro-7,14-methanobenzo[f]benzo[4,5]imidazo[1,2-a][1,4]diazocin-5(14H)-one] |
| > 7.00 | [2H]C([2H])([2H])N1C(=O)c2cccc(OC(F)F)c2[C@H]2C[C@@H]1c1nc3ccc(C#CCOC(C)C)cc3n12 [Example 74, (7R,14R)-1-(difluoromethoxy)-11-(3-isopropoxyprop-1-yn-1-yl)-6-(methyl-d3)-6,7-dihydro-7,14-methanobenzo[f]benzo[4,5]imidazo[1,2-a][1,4]diazocin-5(14H)-one] |
| 6.00 to 7.00 | [2H]C([2H])([2H])N1C(=O)c2cccc(OC(F)F)c2[C@H]2C[C@@H]1c1nc3ccc(C#CC(C)C)cc3n12 [Example 75, (7R,14R)-1-(difluoromethoxy)-6-(methyl-d3)-11-(3-methylbut-1-yn-1-yl)-6,7-dihydro-7,14-methanobenzo[f]benzo[4,5]imidazo[1,2-a][1,4]diazocin-5(14H)-one] |
| > 7.00 | [2H]C([2H])([2H])N1C(=O)c2cccc(OC(F)F)c2[C@H]2C[C@@H]1c1nc3ccc(C#CCCOC)cc3n12 [Example 77, (7R,14R)-1-(difluoromethoxy)-11-(4-methoxybut-1-yn-1-yl)-6-(methyl-d3)-6,7-dihydro-7,14-methanobenzo[f]benzo[4,5]imidazo[1,2-a][1,4]diazocin-5(14H)-one] |
| 6.00 to 7.00 | [2H]C([2H])([2H])N1C(=O)c2cccc(OC(F)F)c2[C@H]2C[C@@H]1c1nc3ccc(C#CC(C)OCC)cc3n12 (stereo partly drawn) [Example 78, (7R,14R)-1-(difluoromethoxy)-11-(3-ethoxybut-1-yn-1-yl)-6-(methyl-d3)-6,7-dihydro-7,14-methanobenzo[f]benzo[4,5]imidazo[1,2-a][1,4]diazocin-5(14H)-one] |
